From US7138361B2, “Herbicidal heterocycles” (E. I. du Pont de Nemours and Company, priority 2000, dated 2006)

Experiments:
Type in all cases: in vivo
[1] = tested on: smallflower flatsedge (Cyperus difformis); assay: Test C flooded paddy test; conditions: for Flatsedge plant response rating: Flooded Paddy, scale 0 to 100, 0 no effect, 100 complete control; for Plant response rating, Flatsedge: flooded paddy test, scale 0 to 100 (0 no effect, 100 complete control)
Outline: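 Plants were grown to the 2-leaf stage under flooded paddy conditions and treated. They were then kept in a greenhouse for 12 to 14 days and visually rated against untreated controls on a 0–100 scale, where 0 is no effect and 100 is complete control.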

[2] = tested on: giant foxtail (Setaria faberii); assay: Test B postemergence; conditions: 13 to 15 days
Outline: (§1)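 Pre: seeded pots sprayed, chemical in non-phytotoxic solvent/surfactant mix. Post: plants 2–18 cm, 1–4 leaf, same formulation. Greenhouse 13–15 d; visual % control vs untreated, 0–100 scale.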

[3] = tested on: blackgrass (Alopecurus myosuroides); assay: Test B postemergence; conditions: 13 to 15 days
Outline: as §1

[4] = tested on: Surinam grass (Brachiaria decumbens); assay: Test B postemergence; conditions: 13 to 15 days
Outline: as §1

corn (Zea mays) [5] = assay: Test B postemergence; conditions: 13 to 15 days
Outline: as §1

[6] = tested on: wheat (Triticum aestivum); assay: Test B postemergence; conditions: 13 to 15 days
Outline: as §1

[7] = tested on: barnyardgrass (Echinochloa crus-galli); assay: Test B postemergence; conditions: 13 to 15 days
Outline: as §1

[8] = tested on: crabgrass (Digitaria sanguinalis); assay: Test B postemergence; conditions: 13 to 15 days
Outline: as §1

[9] = tested on: lambsquarters (Chenopodium album); assay: Test B postemergence; conditions: 13 to 15 days
Outline: as §1

[10] = tested on: velvetleaf (Abutilon theophrasti); assay: Test B postemergence; conditions: 13 to 15 days
Outline: as §1

[11] = tested on: morning glory (Ipomoea hederacea); assay: Test B postemergence; conditions: 13 to 15 days
Outline: as §1

[12] = tested on: pigweed (Amaranthus retroflexus); assay: Test B postemergence; conditions: 13 to 15 days
Outline: as §1

[13] = tested on: cocklebur (Xanthium strumarium); assay: Test B postemergence; conditions: 13 to 15 days
Outline: as §1

wild oat (Avena fatua) = assay: Test B postemergence; conditions: 13 to 15 days
Outline: as §1

[14] = tested on: giant foxtail (Setaria faberii); assay: Test B preemergence
Outline: as §1

[15] = tested on: Surinam grass (Brachiaria decumbens); assay: Test B preemergence
Outline: as §1

corn (Zea mays) [16] = assay: Test B preemergence
Outline: as §1

[17] = tested on: barnyardgrass (Echinochloa crus-galli); assay: Test B preemergence
Outline: as §1

[18] = tested on: crabgrass (Digitaria sanguinalis); assay: Test B preemergence
Outline: as §1

[19] = tested on: lambsquarters (Chenopodium album); assay: Test B preemergence
Outline: as §1

[20] = tested on: velvetleaf (Abutilon theophrasti); assay: Test B preemergence
Outline: as §1

rice (Oryza saliva) = assay: Test B preemergence
Outline: as §1

[21] = tested on: morning glory (Ipomoea hederacea); assay: Test B preemergence
Outline: as §1

[22] = tested on: pigweed (Amaranthus retroflexus); assay: Test B preemergence
Outline: as §1

[23] = tested on: cocklebur (Xanthium strumarium); assay: Test B preemergence
Outline: as §1

Sunflower = assay: Test C preemergence; conditions: Rate 250 g/ha, scale 0 to 100, 0 no effect, 100 complete control
[24] = Rate 125 g/ha, scale 0 (no effect) to 100 (complete control)
[25] = Rate 500 g/ha, scale 0 to 100, 0 is no effect, 100 is complete control
[26] = Preemergence, Rate 500 g/ha, scale 0 to 100, 0 no effect, 100 complete control
[27] = preemergence, Rate 125 g/ha, scale of 0 to 100 where 0 is no effect and 100 is complete control, 13 to 15 days

## CCC(CC)c1ccn(C2OCN(c3cccc(OC(F)(F)F)c3)C2=O)n1 (centres unmarked) [Compound 68]
[1]; Rate 250 g/ha
  Flatsedge plant response rating: 100
[1]; Rate 500 g/ha
  Flatsedge plant response rating: 100
[1]; Rate 62 g/ha
  Plant response rating, Flatsedge: 100
[1]; Rate 125 g/ha
  Plant response rating, Flatsedge: 100
[2]; [24]
  Plant response rating, Foxtail, Giant: 20
[2]; [25]
  Plant response rating, Foxtail, Giant: 40
[3]; [24]
  Plant response rating, Blackgrass: 0
[3]; [25]
  Plant response rating, Blackgrass: 0
[4]; [24]
  Plant response rating, Surinam grass: 20
[4]; [25]
  Plant response rating, Surinam grass: 30
Corn (Zea mays) [5]; [24]
  Plant response rating, Corn: 0
Corn (Zea mays) [5]; [25]
  Plant response rating, Corn: 0
[6]; [24]
  Plant response rating, Wheat: 0
[6]; [25]
  Plant response rating, Wheat: 0
[7]; [24]
  Plant response rating, Barnyardgrass: 90
[7]; [25]
  Plant response rating, Barnyardgrass: 100
[8]; [24]
  Plant response rating, Crabgrass: 90
[8]; [25]
  Plant response rating, Crabgrass: 100
[9]; [24]
  Plant response rating, Lambsquarters: 100
[9]; [25]
  Plant response rating, Lambsquarters: 100
[10]; [24]
  Plant response rating, Velvetleaf: 0
[10]; [25]
  Plant response rating, Velvetleaf: 20
[11]; [24]
  Plant response rating, Morningglory: 0
[11]; [25]
  Plant response rating, Morningglory: 0
[12]; [24]
  Plant response rating, Pigweed: 0
[12]; [25]
  Plant response rating, Pigweed: 0
[13]; [24]
  Plant response rating, Cocklebur: 50
[13]; [25]
  Plant response rating, Cocklebur: 80
Wild oat (Avena fatua); [24]
  Plant response rating, Wild Oat: 0
Wild oat (Avena fatua); [25]
  Plant response rating, Wild Oat: 0
[14]; [26]
  Plant response rating, Foxtail, Giant: 20
[15]; [26]
  Plant response rating, Surinam grass: 0
[15]; [27]
  Plant response rating, Surinam grass: 0
Corn (Zea mays) [16]; [26]
  Plant response rating, Corn: 20
Corn (Zea mays) [16]; [27]
  Plant response rating, Corn: 0
[17]; [26]
  Plant response rating, Barnyardgrass: 100
[17]; [27]
  Plant response rating, Barnyardgrass: 100
[18]; [26]
  Plant response rating, Crabgrass: 20
[19]; [26]
  Plant response rating, Lambsquarters: 100
[19]; [27]
  Plant response rating, Lambsquarters: 100
[20]; [26]
  Plant response rating, Velvetleaf: 0
[20]; [27]
  Plant response rating, Velvetleaf: 0
Rice (Oryza saliva); [26]
  Plant response rating, Rice: 30
Rice (Oryza saliva); [27]
  Plant response rating, Rice: 0
[21]; [26]
  Plant response rating, Morningglory: 0
[21]; [27]
  Plant response rating, Morningglory: 0
[22]; [26]
  Plant response rating, Pigweed: 100
[22]; [27]
  Plant response rating, Pigweed: 100
[23]; [26]
  Plant response rating, Cocklebur: 0
[23]; [27]
  Plant response rating, Cocklebur: 0

## CC1(c2ccn(C3OCN(c4cccc(OC(F)(F)F)c4)C3=O)n2)CC1 (centres unmarked) [Compound 69]
[1]; Rate 250 g/ha
  Flatsedge plant response rating: 100
[1]; Rate 500 g/ha
  Flatsedge plant response rating: 100
[1]; Rate 62 g/ha
  Plant response rating, Flatsedge: 100
[1]; Rate 125 g/ha
  Plant response rating, Flatsedge: 100
[2]; [24]
  Plant response rating, Foxtail, Giant: 0
[2]; [25]
  Plant response rating, Foxtail, Giant: 0
[3]; [24]
  Plant response rating, Blackgrass: 70
[3]; [25]
  Plant response rating, Blackgrass: 70
[4]; [24]
  Plant response rating, Surinam grass: 0
[4]; [25]
  Plant response rating, Surinam grass: 0
Corn (Zea mays) [5]; [24]
  Plant response rating, Corn: 0
Corn (Zea mays) [5]; [25]
  Plant response rating, Corn: 0
[6]; [24]
  Plant response rating, Wheat: 0
[6]; [25]
  Plant response rating, Wheat: 0
[7]; [24]
  Plant response rating, Barnyardgrass: 0
[7]; [25]
  Plant response rating, Barnyardgrass: 90
[8]; [24]
  Plant response rating, Crabgrass: 0
[8]; [25]
  Plant response rating, Crabgrass: 30
[9]; [24]
  Plant response rating, Lambsquarters: 80
[9]; [25]
  Plant response rating, Lambsquarters: 80
[10]; [24]
  Plant response rating, Velvetleaf: 0
[10]; [25]
  Plant response rating, Velvetleaf: 0
[11]; [24]
  Plant response rating, Morningglory: 0
[11]; [25]
  Plant response rating, Morningglory: 0
[12]; [24]
  Plant response rating, Pigweed: 0
[12]; [25]
  Plant response rating, Pigweed: 0
[13]; [24]
  Plant response rating, Cocklebur: 0
[13]; [25]
  Plant response rating, Cocklebur: 20
Wild oat (Avena fatua); [24]
  Plant response rating, Wild Oat: 0
Wild oat (Avena fatua); [25]
  Plant response rating, Wild Oat: 0
[14]; [26]
  Plant response rating, Foxtail, Giant: 0
[14]; [27]
  Plant response rating, Foxtail, Giant: 0
[15]; [26]
  Plant response rating, Surinam grass: 20
[15]; [27]
  Plant response rating, Surinam grass: 20
Corn (Zea mays) [16]; [26]
  Plant response rating, Corn: 0
Corn (Zea mays) [16]; [27]
  Plant response rating, Corn: 0
[17]; [26]
  Plant response rating, Barnyardgrass: 40
[17]; [27]
  Plant response rating, Barnyardgrass: 20
[18]; [26]
  Plant response rating, Crabgrass: 0
[18]; [27]
  Plant response rating, Crabgrass: 0
[19]; [26]
  Plant response rating, Lambsquarters: 100
[19]; [27]
  Plant response rating, Lambsquarters: 90
[20]; [26]
  Plant response rating, Velvetleaf: 0
[20]; [27]
  Plant response rating, Velvetleaf: 0
Rice (Oryza saliva); [26]
  Plant response rating, Rice: 0
Rice (Oryza saliva); [27]
  Plant response rating, Rice: 0
[21]; [26]
  Plant response rating, Morningglory: 0
[21]; [27]
  Plant response rating, Morningglory: 0
[22]; [26]
  Plant response rating, Pigweed: 90
[22]; [27]
  Plant response rating, Pigweed: 60
[23]; [26]
  Plant response rating, Cocklebur: 20
[23]; [27]
  Plant response rating, Cocklebur: 0

## CC(C)(C)c1ccn(C2CCN(c3cccc([S+]([O-])C(F)(F)F)c3)C2=O)n1 (centres unmarked) [Compound 101]
[1]; Rate 250 g/ha
  Flatsedge plant response rating: 90
[1]; Rate 500 g/ha
  Flatsedge plant response rating: 100
[1]; Rate 62 g/ha
  Plant response rating, Flatsedge: 20
[1]; Rate 125 g/ha
  Plant response rating, Flatsedge: 90
[2]; [24]
  Plant response rating, Foxtail, Giant: 0
[2]; [25]
  Plant response rating, Foxtail, Giant: 0
[3]; [24]
  Plant response rating, Blackgrass: 0
[3]; [25]
  Plant response rating, Blackgrass: 0
[4]; [24]
  Plant response rating, Surinam grass: 0
[4]; [25]
  Plant response rating, Surinam grass: 0
Corn (Zea mays) [5]; [24]
  Plant response rating, Corn: 0
Corn (Zea mays) [5]; [25]
  Plant response rating, Corn: 0
[6]; [25]
  Plant response rating, Wheat: 0
[7]; [24]
  Plant response rating, Barnyardgrass: 0
[7]; [25]
  Plant response rating, Barnyardgrass: 0
[8]; [24]
  Plant response rating, Crabgrass: 0
[8]; [25]
  Plant response rating, Crabgrass: 0
[9]; [25]
  Plant response rating, Lambsquarters: 0
[10]; [25]
  Plant response rating, Velvetleaf: 0
[11]; [25]
  Plant response rating, Morningglory: 0
[12]; [25]
  Plant response rating, Pigweed: 0
Wild oat (Avena fatua); [25]
  Plant response rating, Wild Oat: 0
Sunflower
  Plant response rating, Sunflower: 30
[14]; [26]
  Plant response rating, Foxtail, Giant: 100
[14]; [27]
  Plant response rating, Foxtail, Giant: 0
[15]; [26]
  Plant response rating, Surinam grass: 80
[15]; [27]
  Plant response rating, Surinam grass: 0
Corn (Zea mays) [16]; [26]
  Plant response rating, Corn: 70
Corn (Zea mays) [16]; [27]
  Plant response rating, Corn: 0
[17]; [26]
  Plant response rating, Barnyardgrass: 100
[17]; [27]
  Plant response rating, Barnyardgrass: 30
[18]; [26]
  Plant response rating, Crabgrass: 100
[18]; [27]
  Plant response rating, Crabgrass: 90
[19]; [26]
  Plant response rating, Lambsquarters: 100
[19]; [27]
  Plant response rating, Lambsquarters: 100
[20]; [26]
  Plant response rating, Velvetleaf: 0
[20]; [27]
  Plant response rating, Velvetleaf: 0
Rice (Oryza saliva); [27]
  Plant response rating, Rice: 0
[21]; [26]
  Plant response rating, Morningglory: 0
[21]; [27]
  Plant response rating, Morningglory: 0
[22]; [26]
  Plant response rating, Pigweed: 100
[22]; [27]
  Plant response rating, Pigweed: 40
[23]; [26]
  Plant response rating, Cocklebur: 0
[23]; [27]
  Plant response rating, Cocklebur: 0
